Data from patent US20260327246A1, “FUSED RING KRAS INHIBITORS FOR TREATING DISEASE” (BLOSSOMHILL THERAPEUTICS, INC., priority 2023, published 2026).

What was measured:
[1] = system: GP2D (KRAS G12D); assay: Cell Proliferation Assay (CellTiter-Glo 2.0), GP2D; format: cell-based; details: GP2D (KRAS G12D) cells; 72 hours at 37° C., 5% CO2; read-out: Anti-proliferation IC50, GP2D (KRAS G12D)
Method: (§1) Two thousand KRAS mutant cells per well are seeded in 384-well white plate and then treated with indicated compounds for 72 hours at 37° C. and 5% CO2. Cell proliferation is measured using CellTiter-Glo 2.0 luciferase-based ATP detection assay (Promega, Madison, WI) following the manufacturer's protocol. IC50 values are determined using Prism software (GraphPad Software, San Diego, CA).

[2] = system: SW620 (KRAS G12V); assay: Cell Proliferation Assay (CellTiter-Glo 2.0), SW620; format: cell-based; details: Homo sapiens, SW-620; SW620 (KRAS G12V) cells; 72 hours at 37° C., 5% CO2; read-out: Anti-proliferation IC50, SW620 (KRAS G12V)
Method: as §1

| IC50 [2] [nM] | Compound | IC50 [1] [nM] |
| --- | --- | --- |
| 20 | C#Cc1c(F)ccc2cc(O)cc(-c3nc4c5c(nc(OC[C@@]67CCCN6C[C@H](F)C7)nc5c3F)N3CCCCC3C=C4)c12 (stereo partly drawn) [compound 21, 5-ethynyl-6-fluoro-4-(4-fluoro-2-{[(2R,7aS)-2-fluorotetrahydro-1H-pyrrolizin-7a(5H)-yl]methoxy}-9,10,11,12-tetrahydro-8aH-1,3,6,12a-tetraazabenzo[4,5]cyclohepta[1,2,3-de]naphthalen-5-yl)naphthalen-2-ol] | 2.9 |
| 248 | C#Cc1c(F)ccc2cc(O)cc(-c3nc4c5c(nc(OC[C@@]67CCCN6C[C@H](F)C7)nc5c3F)N3CCCCCC3CC4)c12 (some centres unmarked) [compound 22] | 32 |
| 1450 | CCc1c(F)ccc2cc(O)cc(-c3nc4c5c(nc(OC[C@@]67CCCN6C[C@H](F)C7)nc5c3F)N3CCCCCC3CC4)c12 (stereo partly drawn) [compound 23, 5-ethyl-6-fluoro-4-(4-fluoro-2-{[(2R,7aS)-2-fluorotetrahydro-1H-pyrrolizin-7a(5H)-yl]methoxy}-7,8,8a,9,10,11,12,13-octahydro-1,3,6,13a-tetraazanaphtho[1,8-ab]heptalen-5-yl)naphthalen-2-ol] | 172 |
| 91 | C#Cc1c(F)ccc2cc(O)cc(-c3nc4c5c(nc(OCC6(CN(C)C)CC6(F)F)nc5c3F)N3CCCCC3CC4)c12 (centres unmarked) [compound 24, 4-[2-({1-[(dimethylamino)methyl]-2,2-difluorocyclopropyl}methoxy)-4-fluoro-8,8a,9,10,11,12-hexahydro-7H-1,3,6,12a-tetraazabenzo[4,5]cyclohepta[1,2,3-de]naphthalen-5-yl]-5-ethynyl-6-fluoronaphthalen-2-ol] | 23 |
| 638 | C#Cc1c(F)ccc2cc(O)cc(-c3nc4c5c(nc(OC[C@@]67CCCN6C[C@H](F)C7)nc5c3F)N3CCOCC[C@@H]3CC4)c12 [compound 25, 5-ethynyl-6-fluoro-4-[(8aS)-4-fluoro-2-{[(2R,7aS)-2-fluorotetrahydro-1H-pyrrolizin-7a(5H)-yl]methoxy}-8,8a,9,10,12,13-hexahydro-7H-11-oxa-1,3,6,13a-tetraazanaphtho[1,8-ab]heptalen-5-yl]naphthalen-2-ol] | 276 |
| 557 | CCc1c(F)ccc2cc(O)cc(-c3nc4c5c(nc(OC[C@@]67CCCN6C[C@H](F)C7)nc5c3F)N3CCOCC[C@@H]3CC4)c12 [compound 26, 5-ethyl-6-fluoro-4-[(8aS)-4-fluoro-2-{[(2R,7aS)-2-fluorotetrahydro-1H-pyrrolizin-7a(5H)-yl]methoxy}-8,8a,9,10,12,13-hexahydro-7H-11-oxa-1,3,6,13a-tetraazanaphtho[1,8-ab]heptalen-5-yl]naphthalen-2-ol] | 321 |
| 32 | C#Cc1c(F)ccc2cc(O)cc(-c3nc4c5c(nc(OC[C@@]67CCCN6C[C@H](F)C7)nc5c3F)N3CCCC[C@@H]3CC4)c12 [compound 27, 5-ethynyl-6-fluoro-4-[(8aR)-4-fluoro-2-{[(2R,7aS)-2-fluorotetrahydro-1H-pyrrolizin-7a(5H)-yl]methoxy}-8,8a,9,10,11,12-hexahydro-7H-1,3,6,12a-tetraazabenzo[4,5]cyclohepta[1,2,3-de]naphthalen-5-yl]naphthalen-2-ol] | 10 |
| 787 | C#Cc1c(F)ccc2cc(O)cc(-c3nc4c5c(nc(OC[C@@]67CCCN6C[C@H](F)C7)nc5c3F)N3CCCCC3C(C#N)C4)c12 (stereo partly drawn) [compound 28, 5-(8-ethynyl-7-fluoro-3-hydroxynaphthalen-1-yl)-4-fluoro-2-{[(2R,7aS)-2-fluorotetrahydro-1H-pyrrolizin-7a(5H)-yl]methoxy}-8,8a,9,10,11,12-hexahydro-7H-1,3,6,12a-tetraazabenzo[4,5]cyclohepta[1,2,3-de]naphthalene-8-carbonitrile] | 61 |

More lines, now with the values behind:

| Compound | IC50 [2] [nM] | IC50 [1] [nM] |
| --- | --- | --- |
| C#Cc1c(F)ccc2cc(O)cc(-c3nc4c5c(nc(OC[C@@]67CCCN6C[C@H](F)C7)nc5c3F)N3CCCOC[C@H]3CC4)c12 [compound 1, 5-ethynyl-6-fluoro-4-[(8aR)-4-fluoro-2-{[(2R,7aS)-2-fluorotetrahydro-1H-pyrrolizin-7a(5H)-yl]methoxy}-7,8,8a,9,12,13-hexahydro-11H-10-oxa-1,3,6,13a-tetraazanaphtho[1,8-ab]heptalen-5-yl]naphthalen-2-ol] | 3.6 | 1.1 |
| C#Cc1c(F)ccc2cc(O)cc(-c3nc4c5c(nc(OC[C@@]67CCCN6C[C@H](F)C7)nc5c3F)N3CCCOC[C@@H]3CC4)c12 [compound 2, 5-ethynyl-6-fluoro-4-[(8aS)-4-fluoro-2-{[(2R,7aS)-2-fluorotetrahydro-1H-pyrrolizin-7a(5H)-yl]methoxy}-7,8,8a,9,12,13-hexahydro-11H-10-oxa-1,3,6,13a-tetraazanaphtho[1,8-ab]heptalen-5-yl]naphthalen-2-ol] | 592 | 85 |
| CCc1c(F)ccc2cc(O)cc(-c3nc4c5c(nc(OC[C@@]67CCCN6C[C@H](F)C7)nc5c3F)N3CCCOC[C@H]3CC4)c12 [compound 3, 5-ethyl-6-fluoro-4-[(8aR)-4-fluoro-2-{[(2R,7aS)-2-fluorotetrahydro-1H-pyrrolizin-7a(5H)-yl]methoxy}-7,8,8a,9,12,13-hexahydro-11H-10-oxa-1,3,6,13a-tetraazanaphtho[1,8-ab]heptalen-5-yl]naphthalen-2-ol] | 11 | 6.3 |
| CCc1c(F)ccc2cc(O)cc(-c3nc4c5c(nc(OC[C@@]67CCCN6C[C@H](F)C7)nc5c3F)N3CCCOC[C@@H]3CC4)c12 [compound 4, 5-ethyl-6-fluoro-4-[(8aS)-4-fluoro-2-{[(2R,7aS)-2-fluorotetrahydro-1H-pyrrolizin-7a(5H)-yl]methoxy}-7,8,8a,9,12,13-hexahydro-11H-10-oxa-1,3,6,13a-tetraazanaphtho[1,8-ab]heptalen-5-yl]naphthalen-2-ol] | 304 | 135 |
| C#Cc1c(F)ccc2cc(O)cc(-c3nc4c5c(nc(OC[C@@]67CCCN6C[C@H](F)C7)nc5c3F)N3CCOCC[C@H]3CC4)c12 [compound 5, 5-ethynyl-6-fluoro-4-[(8aR)-4-fluoro-2-{[(2R,7aS)-2-fluorotetrahydro-1H-pyrrolizin-7a(5H)-yl]methoxy}-8,8a,9,10,12,13-hexahydro-7H-11-oxa-1,3,6,13a-tetraazanaphtho[1,8-ab]heptalen-5-yl]naphthalen-2-ol] | 20 | 4.2 |
| CCc1c(F)ccc2cc(O)cc(-c3nc4c5c(nc(OC[C@@]67CCCN6C[C@H](F)C7)nc5c3F)N3CCOCC[C@H]3CC4)c12 [compound 6, 5-ethyl-6-fluoro-4-[(8aR)-4-fluoro-2-{[(2R,7aS)-2-fluorotetrahydro-1H-pyrrolizin-7a(5H)-yl]methoxy}-8,8a,9,10,12,13-hexahydro-7H-11-oxa-1,3,6,13a-tetraazanaphtho[1,8-ab]heptalen-5-yl]naphthalen-2-ol] | 26 | 21 |
| C#Cc1c(F)ccc2cc(O)cc(-c3nc4c5c(nc(OC[C@@]67CCCN6C[C@H](F)C7)nc5c3F)N3CCCC[C@H]3COC4)c12 [compound 9, 5-ethynyl-6-fluoro-4-[(6aS)-1-fluoro-12-{[(2R,7aS)-2-fluorotetrahydro-1H-pyrrolizin-7a(5H)-yl]methoxy}-6,6a,7,8,9,10-hexahydro-4H-5-oxa-3,10a,11,13-tetraazabenzo[4,5]cycloocta[1,2,3-de]naphthalen-2-yl]naphthalen-2-ol] | 641 | 102 |
| C#Cc1c(F)ccc2cc(O)cc(-c3nc4c5c(nc(OC[C@@]67CCCN6C[C@H](F)C7)nc5c3F)N3CCC[C@H]3COC4)c12 [compound 10, 5-ethynyl-6-fluoro-4-[(6aS)-1-fluoro-11-{[(2R,7aS)-2-fluorotetrahydro-1H-pyrrolizin-7a(5H)-yl]methoxy}-6a,7,8,9-tetrahydro-4H,6H-5-oxa-3,9a,10,12-tetraazacyclopenta[4,5]cycloocta[1,2,3-de]naphthalen-2-yl]naphthalen-2-ol] | 3000 | 3000 |
| C#Cc1c(F)ccc2cc(O)cc(-c3nc4c5c(nc(OC[C@@]67CCCN6C[C@H](F)C7)nc5c3F)N3CCCC[C@H]3C4)c12 [compound 13, 5-ethynyl-6-fluoro-4-((S)-4-fluoro-2-(((2R,7aS)-2-fluorotetrahydro-1H-pyrrolizin-7a(5H)-yl)methoxy)-7,7a,8,9,10,11-hexahydropyrido[1,2-g]pyrimido[4,5,6-de][1,6]naphthyridin-5-yl)naphthalen-2-ol] | 39 | 3.9 |
| C#Cc1c(F)ccc2cc(O)cc(-c3nc4c5c(nc(OC[C@@]67CCCN6C[C@H](F)C7)nc5c3F)N3CCOC[C@H]3C4)c12 [compound 18, 5-ethynyl-6-fluoro-4-((R)-4-fluoro-2-(((2R,7aS)-2-fluorotetrahydro-1H-pyrrolizin-7a(5H)-yl)methoxy)-7a,8,10,11-tetrahydro-7H-[1,4]oxazino[4,3-g]pyrimido[4,5,6-de][1,6]naphthyridin-5-yl)naphthalen-2-ol] | 130 | 123 |
| C#Cc1c(F)ccc2cc(O)cc(-c3nc4c5c(nc(OC[C@@]67CCCN6C[C@H](F)C7)nc5c3F)N3CCCC[C@H]3CC4)c12 [compound 20, 5-ethynyl-6-fluoro-4-[(8aS)-4-fluoro-2-{[(2R,7aS)-2-fluorotetrahydro-1H-pyrrolizin-7a(5H)-yl]methoxy}-8,8a,9,10,11,12-hexahydro-7H-1,3,6,12a-tetraazabenzo[4,5]cyclohepta[1,2,3-de]naphthalen-5-yl]naphthalen-2-ol] | 47 | 10 |
